Values after ≈ are worked out from the molar mass of the structure shown.
Experiments:
Type in all cases: in vivo
[1] = system: fruit tree spider mite (Panonychus ulmi); assay: Panonychus ulmi test (sprayed plum cuttings); conditions: single active substance
Procedure: (§1) Solvent: 7 parts by weight of dimethylformamide
(§2) Emulsifier: 2 parts by weight of alkylaryl polyglycol ether
(§3) To prepare a suitable preparation of active substance, 1 part by weight of active substance is mixed with the stated amounts of solvent and emulsifier, and the concentrate is diluted with water to the desired concentrations.
Plum cuttings (Prunus domestica) which are infected with a mixed population of the fruit tree spider mite (Panonychus ulmi) are sprayed with the active substance preparation at the desired concentration.
(§4) After the desired period of time, the destruction is determined in %. In this context, 100% means that all spider mites have been destroyed; 0% means that no spider mites have been destroyed.

[2] = system: common spider mite (Tetranychus urticae); assay: Tetranychus urticae test (OP-resistant; sprayed cucumbers); conditions: single active substance
Procedure: Tetranychus urticae Test (OP-Resistant)
as §1, §2, §3
Cucumbers (Cucumis sativus) which are severely infected with the common spider mite (Tetranychus urticae) are sprayed with the active substance preparation at the desired concentration.
as §4

[3] = system: citrus spider mite (Panonychus citri); assay: Panonychus citri test (sprayed citrus plants); conditions: single active substance; for LC50: Panonychus citri, in Citrus x limon, 24 h, after 1 d, read-out: LC 50 in mg/l after 1d; for LC 50 in mg/l after 1d: Citrus limon
Procedure: as §1, §2, §3
Citrus plants (Citrus limon) which are infected with a mixed population of the citrus spider mite (Panonychus citri) are sprayed with the active substance preparation at the desired concentration.
as §4

Molecule	Destruction in % after 2d ([1]; 0.8 ppm, plum cuttings) [%]	Destruction in % after 6d ([2]; 0.16 ppm, cucumbers) [%]	LC50 [3] [mg/L]	LC 50 in mg/l after 1d [3] [mg/L]	Destruction in % after 2d ([1]; 4 ppm) [%]	Destruction in % after 6d ([2]; 0.032 ppm) [%]	Destruction in % after 2d ([1]; 0.16 ppm) [%]
COc1ccc(-c2ccccc2)cc1NNC(=O)OC(C)C [Bifenazate (II), bifenazate]	10	15	–	–	–	–	–
CC(C)(C)c1ccc(CCOc2ncnc3ccccc23)cc1 [Fenazaquin (V), fenazaquin]	0	0	10.2 (≈ 33.3 µM)	–	–	–	–
CC(C)(C)c1ccc(CSc2cnn(C(C)(C)C)c(=O)c2Cl)cc1 [Pyridaben (IV), pyridaben]	–	–	–	31.41 (≈ 86.1 µM)	–	–	–
CCC(C)(C)C(=O)OC1=C(c2ccc(Cl)cc2Cl)C(=O)OC12CCCCC2 [Spirodiclofen (I), Spirodiclofen]	5	25	12.3 (≈ 29.8 µM)	–	15	15	–
abamectin [Abamectin (VI)]	–	–	–	1.0054	–	–	0

From patent US8486995B2, “Acaricidal active substance combinations” (priority 2007, dated 2013)
